# Laboratory results: patent publication US20060258739A1, “Dihydrobenzofuran derivatives and uses therof” (Wyeth, priority 2005, published 2006)
# Target: T1, human 5-hydroxytryptamine-2C (h5-HT2C) receptor (Homo sapiens, UniProt P28335)
# T1 construct: expressed in transfected cells; host or cells: CHO (Chinese Hamster Ovary) cells; membrane preparation
# T1 sequence (P28335 33-458): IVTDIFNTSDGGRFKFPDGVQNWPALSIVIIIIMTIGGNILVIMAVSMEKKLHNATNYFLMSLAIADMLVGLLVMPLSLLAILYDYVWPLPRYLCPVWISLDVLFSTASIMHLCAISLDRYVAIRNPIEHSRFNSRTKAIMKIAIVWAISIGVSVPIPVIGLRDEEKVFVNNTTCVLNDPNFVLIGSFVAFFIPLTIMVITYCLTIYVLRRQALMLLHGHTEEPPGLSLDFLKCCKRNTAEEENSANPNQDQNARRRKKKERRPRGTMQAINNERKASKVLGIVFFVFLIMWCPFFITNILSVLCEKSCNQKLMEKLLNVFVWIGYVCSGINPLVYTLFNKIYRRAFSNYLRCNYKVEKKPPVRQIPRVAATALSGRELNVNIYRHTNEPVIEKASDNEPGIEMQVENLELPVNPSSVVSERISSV
# Assay: [125I]DOI radioligand binding to membranes of CHO cells expressing the h5-HT2C receptor
Compound,"Kd (read-out: dissociation constant, KD of [125I] DOI, saturation binding with increasing concentrations of [125I]DOI) [nM]","Ki (displacement of [125I]DOI, CHO cell membranes, room temperature 60 min, read-out: Ki (95% confidence interval)) [nM]"
COc1cc(CC(C)N)c(OC)cc1I (centres unmarked) [[^125I] DOI],0.4,–
CSc1ccc2c(c1)C(N1CCN(C)CC1)Cc1ccccc1S2 (centres unmarked) [Methiothepin],–,4.6
